According to PubChem BioAssay AID1963869 (Molecular Pharmacology Branch, DTP, NCI, 2024):

Tested on: KRAS patient-derived spheroids with HUVEC/MSC, viability
Experiment: Anticancer human tumor 323965-272-R-J2-PDC patient-derived pancreatic carcinoma cell line growth inhibition [KRAS2]
Conditions: for IC50: curve of first compound; for viability, T/C: stronger effect = lower value
Procedure, shortened: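 KRAS-mutant tumor cells were grown as spheroids with HUVEC endothelial cells and human MSCs as stroma. Targeted agents were tested alone and with KRAS pathway inhibitors. Doses started at or near clinical Cmax, or 10 microM, descending half-log.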

[1] = second compound 0.1 µM, first compound 0.0316 µM
[2] = second compound 0.1 µM, first compound 0.1 µM
[3] = second compound 0.1 µM, first compound 0.316 µM
[4] = second compound 0.1 µM, first compound 1 µM
[5] = second compound 0.1 µM, first compound 3.16 µM
[6] = second compound 0.1 µM, first compound 10 µM
[7] = second compound 0.316 µM, first compound 0.0316 µM
[8] = second compound 0.316 µM, first compound 0.1 µM
[9] = second compound 0.316 µM, first compound 0.316 µM
[10] = second compound 0.316 µM, first compound 1 µM
[11] = second compound 0.316 µM, first compound 3.16 µM
[12] = second compound 0.316 µM, first compound 10 µM
[13] = second compound 1 µM, first compound 0.0316 µM
[14] = second compound 1 µM, first compound 0.1 µM
[15] = second compound 1 µM, first compound 0.316 µM
[16] = second compound 1 µM, first compound 1 µM
[17] = second compound 1 µM, first compound 3.16 µM
[18] = second compound 1 µM, first compound 10 µM
[19] = second compound 3.16 µM, first compound 0.0316 µM
[20] = second compound 3.16 µM, first compound 0.1 µM
[21] = second compound 3.16 µM, first compound 0.316 µM
[22] = second compound 3.16 µM, first compound 1 µM
[23] = second compound 3.16 µM, first compound 3.16 µM
[24] = second compound 3.16 µM, first compound 10 µM
[25] = second compound 10 µM, first compound 0.0316 µM
[26] = second compound 10 µM, first compound 0.1 µM
[27] = second compound 10 µM, first compound 0.316 µM
[28] = second compound 10 µM, first compound 1 µM
[29] = second compound 10 µM, first compound 3.16 µM
[30] = second compound 10 µM, first compound 10 µM
[31] = second compound 0.1 µM, first compound 0.01 µM
[32] = second compound 0.316 µM, first compound 0.01 µM
[33] = second compound 1 µM, first compound 0.01 µM
[34] = second compound 3.16 µM, first compound 0.01 µM
[35] = second compound 10 µM, first compound 0.01 µM
[36] = second compound 0.1 µM, first compound 0.00316 µM
[37] = second compound 0.316 µM, first compound 0.00316 µM
[38] = second compound 1 µM, first compound 0.00316 µM
[39] = second compound 3.16 µM, first compound 0.00316 µM
[40] = second compound 10 µM, first compound 0.00316 µM
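Note: spheroids exposed to agents for 7 days.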
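Throughout, for viability, T/C: 100% = DMSO vehicle control viability.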

Compound	IC50 (second compound 0.1 µM) [nM]	IC50 (second compound 0.316 µM) [nM]	IC50 (second compound 1 µM) [nM]	IC50 (second compound 3.16 µM) [nM]	IC50 (second compound 10 µM) [nM]	viability, T/C [1] [%]	viability, T/C [2] [%]	viability, T/C [3] [%]	viability, T/C [4] [%]	viability, T/C [7] [%]	viability, T/C [8] [%]	viability, T/C [9] [%]	viability, T/C [10] [%]	viability, T/C [13] [%]	viability, T/C [14] [%]	viability, T/C [15] [%]	viability, T/C [19] [%]	viability, T/C [20] [%]	viability, T/C [25] [%]	viability, T/C [26] [%]	other results
CC(C)NCC(C(=O)N1CCN(c2ncnc3c2C(C)CC3O)CC1)c1ccc(Cl)cc1 (stereo not given) + CC1OCC2(CCN(c3cnc(Sc4ccnc(N)c4Cl)c(N)n3)CC2)C1N	732	143	< 31.6	< 31.6	< 31.6	84.6	72.5	57.6	44.9	60.2	54.2	40.8	29	38.5	35.3	21.5	24.8	20.3	20.8	19.1	viability, T/C [5]: 42.1%; viability, T/C [6]: 32.4%; viability, T/C [11]: 27.9%; viability, T/C [12]: 23.6%; viability, T/C [16]: 12.7%; viability, T/C [17]: 12.6%; viability, T/C [18]: 10.4%; viability, T/C [21]: 12.6%; viability, T/C [22]: 7.8%; viability, T/C [23]: 5.77%; viability, T/C [24]: 3.98%; viability, T/C [27]: 11.5%; viability, T/C [28]: 6.63%; viability, T/C [29]: 4.73%; viability, T/C [30]: 2.87%
CC1COCCN1c1cc(-c2ccnn2C)c2ccnc(-c3ccn[nH]3)c2n1 (stereo not given) + CC1OCC2(CCN(c3cnc(Sc4ccnc(N)c4Cl)c(N)n3)CC2)C1N	15.3	< 10	< 10	< 10	< 10	32.2	17.7	15	13.5	23.2	12.3	10.7	10.5	13	7.36	6.29	7.07	4.72	5.12	4.05	viability, T/C [31]: 60.7%; viability, T/C [5]: 12.9%; viability, T/C [32]: 43.1%; viability, T/C [11]: 9.88%; viability, T/C [33]: 35.1%; viability, T/C [16]: 5.53%; viability, T/C [17]: 3.23%; viability, T/C [34]: 13.3%; viability, T/C [21]: 4.25%; viability, T/C [22]: 2.21%; viability, T/C [23]: 2.21%; viability, T/C [35]: 7.99%; viability, T/C [27]: 3.27%; viability, T/C [28]: 1.9%; viability, T/C [29]: 1.31%
CCN1CCN(Cc2ccc(Nc3ncc(F)c(-c4cc(F)c5nc(C)n(C(C)C)c5c4)n3)nc2)CC1 + CC1OCC2(CCN(c3cnc(Sc4ccnc(N)c4Cl)c(N)n3)CC2)C1N	25.2	14.6	< 3.16	< 3.16	< 3.16	45.8	46.4	42	49.7	42.1	36.8	35.5	42.3	26.2	23.4	26.1	14.9	14.7	13.9	10.5	viability, T/C [36]: 72.6%; viability, T/C [31]: 66.4%; viability, T/C [37]: 51.3%; viability, T/C [32]: 56.5%; viability, T/C [38]: 38.5%; viability, T/C [33]: 37.7%; viability, T/C [16]: 35.3%; viability, T/C [39]: 18.8%; viability, T/C [34]: 15.7%; viability, T/C [21]: 17.9%; viability, T/C [22]: 29.5%; viability, T/C [40]: 13.7%; viability, T/C [35]: 16.3%; viability, T/C [27]: 14.5%; viability, T/C [28]: 25.7%
CCNC(=O)CC1N=C(c2ccc(Cl)cc2)c2cc(OC)ccc2-n2c(C)nnc21 (stereo not given) + CC1OCC2(CCN(c3cnc(Sc4ccnc(N)c4Cl)c(N)n3)CC2)C1N	244	146	< 31.6	< 31.6	< 31.6	74.6	63.5	44.9	36.3	63.3	57.8	34.4	28	45.6	35.5	27.2	16.2	20.8	16.6	16.3	viability, T/C [5]: 28.6%; viability, T/C [6]: 27.4%; viability, T/C [11]: 25.2%; viability, T/C [12]: 22.6%; viability, T/C [16]: 22.2%; viability, T/C [17]: 11.9%; viability, T/C [18]: 7.8%; viability, T/C [21]: 14.3%; viability, T/C [22]: 13.1%; viability, T/C [23]: 6.89%; viability, T/C [24]: 4.84%; viability, T/C [27]: 14.9%; viability, T/C [28]: 8.18%; viability, T/C [29]: 6.22%; viability, T/C [30]: 3.88%
Cn1nccc1Nc1nccc(-c2cc3c(s2)C(C)(C)N(CCN2CCOCC2)C3=O)n1 + CC1OCC2(CCN(c3cnc(Sc4ccnc(N)c4Cl)c(N)n3)CC2)C1N	806	102	< 31.6	< 31.6	< 31.6	66.1	67.3	55.8	51	56	50.3	36.2	33.1	32.9	32.4	27.4	17.4	16	14.4	12.8	viability, T/C [5]: 35.9%; viability, T/C [6]: 36.4%; viability, T/C [11]: 33.6%; viability, T/C [12]: 33.5%; viability, T/C [16]: 22%; viability, T/C [17]: 23.3%; viability, T/C [18]: 22.9%; viability, T/C [21]: 13.9%; viability, T/C [22]: 14.7%; viability, T/C [23]: 14.7%; viability, T/C [24]: 18.8%; viability, T/C [27]: 9.42%; viability, T/C [28]: 8.83%; viability, T/C [29]: 9.11%; viability, T/C [30]: 12.2%
Cn1ncnc1[C@H]1c2n[nH]c(=O)c3cc(F)cc(c23)N[C@@H]1c1ccc(F)cc1 + CC1OCC2(CCN(c3cnc(Sc4ccnc(N)c4Cl)c(N)n3)CC2)C1N	> 100	35.9	< 0.316	< 0.316	< 0.316	76.2	62			51.2	45			42	38		24.4	21	18.7	17.2	viability, T/C (second compound 0.1 µM, first compound 0.000316 µM): 80.9%; viability, T/C (second compound 0.1 µM, first compound 0.001 µM): 82.9%; viability, T/C [36]: 82.9%; viability, T/C [31]: 79.7%; viability, T/C (second compound 0.316 µM, first compound 0.000316 µM): 57.5%; viability, T/C (second compound 0.316 µM, first compound 0.001 µM): 62.5%; viability, T/C [37]: 55.2%; viability, T/C [32]: 53.6%; viability, T/C (second compound 1 µM, first compound 0.000316 µM): 44%; viability, T/C (second compound 1 µM, first compound 0.001 µM): 47.5%; viability, T/C [38]: 45.7%; viability, T/C [33]: 43.7%; viability, T/C (second compound 3.16 µM, first compound 0.000316 µM): 34.4%; viability, T/C (second compound 3.16 µM, first compound 0.001 µM): 32%; viability, T/C [39]: 30.1%; viability, T/C [34]: 28.2%; viability, T/C (second compound 10 µM, first compound 0.000316 µM): 29.3%; viability, T/C (second compound 10 µM, first compound 0.001 µM): 23.2%; viability, T/C [40]: 20.8%; viability, T/C [35]: 20.1%
